{"source": "ChEMBL document CHEMBL1141696", "about": "(Bioorg Med Chem Lett, 2008)", "key": {"[1]": {"test": "Binding affinity to delta opioid receptor in guinea pig forebrain", "parameters": "species or system Cavia porcellus"}, "[2]": {"tested_on": "Mus musculus", "test": "Antinociceptive activity in sc dosed mouse assessed as attenuation of acetic acid-induced writhing per 10 mins", "assay_type": "functional"}}, "data": [{"smiles": "O=C1CC[C@@]2(O)[C@H]3Cc4ccc(O)c5c4[C@@]2(CCN3CC2CC2)[C@H]1O5", "note": "[NALTREXONE]", "values": [{"measurement": "Ki", "setting": "[1]", "result": 0.0207, "unit": "µM"}]}, {"smiles": "CC(C)CN1CC[C@]23c4c5ccc(O)c4O[C@H]2C(=O)CC[C@@]3(O)[C@H]1C5", "values": [{"measurement": "Ki", "setting": "[1]", "result": 0.229, "unit": "µM"}, {"measurement": "Activity", "setting": "[2]", "result": "Dose-dependent effect"}, {"measurement": "ED50", "setting": "[2]", "result": 5.05, "unit": "mg/kg"}]}]}
